From PubChem BioAssay AID2060512 (Molecular Pharmacology Branch, DTP, NCI, 2025)
Values belong to the molecule of their own block, whether it stands above or below them.

Test system: 186277-243-T-J2-PDC complex spheroid viability
Assay: Anticancer human tumor 186277-243-T-J2-PDC patient-derived colon adenocarcinoma cell line growth inhibition [GQUAD]
Settings: for IC50: curve of first compound; for viability, T/C: stronger effect = lower value
Method in brief: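 Multi-cell-type spheroids of tumor cells with HUVEC and mesenchymal stem cells, treated with drug combinations. Concentrations descend in half-log steps from near clinical Cmax, or from 10 microM where Cmax is unknown; viability read-out.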

[1] = second compound 0.0316 µM, first compound 0.0316 µM
[2] = second compound 0.0316 µM, first compound 0.1 µM
[3] = second compound 0.0316 µM, first compound 0.316 µM
[4] = second compound 0.0316 µM, first compound 1 µM
[5] = second compound 0.0316 µM, first compound 3.16 µM
[6] = second compound 0.0316 µM, first compound 10 µM
[7] = second compound 0.1 µM, first compound 0.0316 µM
[8] = second compound 0.1 µM, first compound 0.1 µM
[9] = second compound 0.1 µM, first compound 0.316 µM
[10] = second compound 0.1 µM, first compound 1 µM
[11] = second compound 0.1 µM, first compound 3.16 µM
[12] = second compound 0.1 µM, first compound 10 µM
[13] = second compound 0.316 µM, first compound 0.0316 µM
[14] = second compound 0.316 µM, first compound 0.1 µM
[15] = second compound 0.316 µM, first compound 0.316 µM
[16] = second compound 0.316 µM, first compound 1 µM
[17] = second compound 0.316 µM, first compound 3.16 µM
[18] = second compound 0.316 µM, first compound 10 µM
[19] = second compound 1 µM, first compound 0.0316 µM
[20] = second compound 1 µM, first compound 0.1 µM
[21] = second compound 1 µM, first compound 0.316 µM
[22] = second compound 1 µM, first compound 1 µM
[23] = second compound 1 µM, first compound 3.16 µM
[24] = second compound 1 µM, first compound 10 µM
[25] = second compound 3.16 µM, first compound 0.0316 µM
[26] = second compound 3.16 µM, first compound 0.1 µM
[27] = second compound 3.16 µM, first compound 0.316 µM
[28] = second compound 3.16 µM, first compound 1 µM
[29] = second compound 3.16 µM, first compound 3.16 µM
[30] = second compound 3.16 µM, first compound 10 µM
[31] = second compound 10 µM, first compound 0.0316 µM
[32] = second compound 10 µM, first compound 0.1 µM
[33] = second compound 10 µM, first compound 0.316 µM
[34] = second compound 10 µM, first compound 1 µM
[35] = second compound 10 µM, first compound 3.16 µM
[36] = second compound 10 µM, first compound 10 µM
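Note: spheroids exposed to drugs for 7 days.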
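Throughout, for viability, T/C: 100% = DMSO vehicle control viability.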

Structure (SMILES): O=c1[nH]cc(F)c(=O)[nH]1 + Cc1[nH]c2ccc(F)cc2c1-c1nc2c3cccnc3c3ncccc3c2[nH]1
IC50 (second compound 0.0316 µM): > 10000 nM | IC50 (second compound 0.1 µM): > 10000 nM | IC50 (second compound 0.316 µM): 8530 nM | IC50 (second compound 1 µM): > 10000 nM | IC50 (second compound 3.16 µM): 7710 nM | IC50 (second compound 10 µM): 6670 nM | viability, T/C [1]: 107% | viability, T/C [2]: 99.2% | viability, T/C [3]: 110% | viability, T/C [4]: 106% | viability, T/C [5]: 67.7% | viability, T/C [6]: 51.4% | viability, T/C [7]: 94.7% | viability, T/C [8]: 86.5% | viability, T/C [9]: 110% | viability, T/C [10]: 109% | viability, T/C [11]: 80.9% | viability, T/C [12]: 51.7% | viability, T/C [13]: 84.9% | viability, T/C [14]: 101% | viability, T/C [15]: 106% | viability, T/C [16]: 124% | viability, T/C [17]: 80.7% | viability, T/C [18]: 45.1% | viability, T/C [19]: 98.2% | viability, T/C [20]: 93.7% | viability, T/C [21]: 93.5% | viability, T/C [22]: 87.7% | viability, T/C [23]: 80.7% | viability, T/C [24]: 51.4% | viability, T/C [25]: 97.9% | viability, T/C [26]: 94% | viability, T/C [27]: 110% | viability, T/C [28]: 99.4% | viability, T/C [29]: 68.6% | viability, T/C [30]: 44.6% | viability, T/C [31]: 106% | viability, T/C [32]: 108% | viability, T/C [33]: 110% | viability, T/C [34]: 116% | viability, T/C [35]: 69.3% | viability, T/C [36]: 39.5%

Structure (SMILES): COc1cc(C2c3cc4c(cc3C(OC3OC5COC(C)OC5C(O)C3O)C3COC(=O)C23)OCO4)cc(OC)c1O (stereo not drawn) + CN(C)c1ccc(Nc2c3ccc(NC(=O)CCN4CCCC4)cc3nc3cc(NC(=O)CCN4CCCC4)ccc23)cc1
IC50 (second compound 0.0316 µM): 767 nM | IC50 (second compound 0.1 µM): 757 nM | IC50 (second compound 0.316 µM): 915 nM | IC50 (second compound 1 µM): 808 nM | IC50 (second compound 3.16 µM): 1340 nM | IC50 (second compound 10 µM): 1460 nM | viability, T/C [1]: 112% | viability, T/C [2]: 99.4% | viability, T/C [3]: 74.2% | viability, T/C [4]: 38.9% | viability, T/C [5]: 35% | viability, T/C [6]: 18.6% | viability, T/C [7]: 91.5% | viability, T/C [8]: 94.5% | viability, T/C [9]: 72.3% | viability, T/C [10]: 40.4% | viability, T/C [11]: 34.6% | viability, T/C [12]: 18.6% | viability, T/C [13]: 113% | viability, T/C [14]: 96.7% | viability, T/C [15]: 80.5% | viability, T/C [16]: 42.8% | viability, T/C [17]: 31.7% | viability, T/C [18]: 15.6% | viability, T/C [19]: 105% | viability, T/C [20]: 107% | viability, T/C [21]: 74.6% | viability, T/C [22]: 42.9% | viability, T/C [23]: 32.9% | viability, T/C [24]: 17.5% | viability, T/C [25]: 115% | viability, T/C [26]: 102% | viability, T/C [27]: 81.1% | viability, T/C [28]: 49.6% | viability, T/C [29]: 39.9% | viability, T/C [30]: 16% | viability, T/C [31]: 107% | viability, T/C [32]: 74.5% | viability, T/C [33]: 88.6% | viability, T/C [34]: 50.9% | viability, T/C [35]: 37.2% | viability, T/C [36]: 15.5%

Structure (SMILES): O=C(NO)c1cnc(N2CCN(S(=O)(=O)c3ccc4ccccc4c3)CC2)nc1 + CN(C)c1ccc(Nc2c3ccc(NC(=O)CCN4CCCC4)cc3nc3cc(NC(=O)CCN4CCCC4)ccc23)cc1
IC50 (second compound 0.0316 µM): 171 nM | IC50 (second compound 0.1 µM): 176 nM | IC50 (second compound 0.316 µM): 182 nM | IC50 (second compound 1 µM): 176 nM | IC50 (second compound 3.16 µM): 183 nM | IC50 (second compound 10 µM): 183 nM | viability, T/C [1]: 103% | viability, T/C [2]: 87% | viability, T/C [3]: 7.72% | viability, T/C [4]: 0.27% | viability, T/C [5]: 0.26% | viability, T/C [6]: 0.18% | viability, T/C [7]: 90.1% | viability, T/C [8]: 91.3% | viability, T/C [9]: 7.71% | viability, T/C [10]: 0.23% | viability, T/C [11]: 0.14% | viability, T/C [12]: 0.15% | viability, T/C [13]: 105% | viability, T/C [14]: 94.8% | viability, T/C [15]: 8.34% | viability, T/C [16]: 0.23% | viability, T/C [17]: 0.12% | viability, T/C [18]: 0.13% | viability, T/C [19]: 92.1% | viability, T/C [20]: 90.8% | viability, T/C [21]: 7.85% | viability, T/C [22]: 0.24% | viability, T/C [23]: 0.13% | viability, T/C [24]: 0.13% | viability, T/C [25]: 104% | viability, T/C [26]: 94.2% | viability, T/C [27]: 9.96% | viability, T/C [28]: 0.26% | viability, T/C [29]: 0.16% | viability, T/C [30]: 0.15% | viability, T/C [31]: 92.5% | viability, T/C [32]: 101% | viability, T/C [33]: 7.98% | viability, T/C [34]: 0.3% | viability, T/C [35]: 0.21% | viability, T/C [36]: 0.19%

IC50 (second compound 0.0316 µM): 985 nM | IC50 (second compound 0.1 µM): 1080 nM | IC50 (second compound 0.316 µM): 1630 nM | IC50 (second compound 1 µM): < 31.6 nM | IC50 (second compound 3.16 µM): 169 nM | IC50 (second compound 10 µM): < 31.6 nM
Structure (SMILES): COc1cc(C2c3cc4c(cc3C(OC3OC5COC(C)OC5C(O)C3O)C3COC(=O)C23)OCO4)cc(OC)c1O (stereo not drawn) + Cc1cnc(CNC(=O)c2c(=O)c3ccc(N4CCCN(C)CC4)nc3n3c2sc2ccccc23)cn1
viability, T/C [1]: 105% | viability, T/C [2]: 93.9% | viability, T/C [3]: 78.2% | viability, T/C [4]: 45.1% | viability, T/C [5]: 33.3% | viability, T/C [6]: 15.8% | viability, T/C [7]: 70.8% | viability, T/C [8]: 82.5% | viability, T/C [9]: 69.3% | viability, T/C [10]: 46.5% | viability, T/C [11]: 37.3% | viability, T/C [12]: 20% | viability, T/C [13]: 80.8% | viability, T/C [14]: 69.8% | viability, T/C [15]: 55.9% | viability, T/C [16]: 53.7% | viability, T/C [17]: 53.3% | viability, T/C [18]: 20.3% | viability, T/C [19]: 43.6% | viability, T/C [20]: 50.8% | viability, T/C [21]: 57.5% | viability, T/C [22]: 44.9% | viability, T/C [23]: 42.3% | viability, T/C [24]: 20% | viability, T/C [25]: 50.9% | viability, T/C [26]: 51% | viability, T/C [27]: 51.4% | viability, T/C [28]: 38.8% | viability, T/C [29]: 30.7% | viability, T/C [30]: 19.6% | viability, T/C [31]: 42.7% | viability, T/C [32]: 35% | viability, T/C [33]: 45% | viability, T/C [34]: 47% | viability, T/C [35]: 33.7% | viability, T/C [36]: 17.7%
